The target in test [1] is T1, C. maenas DH31R (Carcinus maenas, UniProt A0A345BTT1).
T1 sequence (A0A345BTT1 1-442): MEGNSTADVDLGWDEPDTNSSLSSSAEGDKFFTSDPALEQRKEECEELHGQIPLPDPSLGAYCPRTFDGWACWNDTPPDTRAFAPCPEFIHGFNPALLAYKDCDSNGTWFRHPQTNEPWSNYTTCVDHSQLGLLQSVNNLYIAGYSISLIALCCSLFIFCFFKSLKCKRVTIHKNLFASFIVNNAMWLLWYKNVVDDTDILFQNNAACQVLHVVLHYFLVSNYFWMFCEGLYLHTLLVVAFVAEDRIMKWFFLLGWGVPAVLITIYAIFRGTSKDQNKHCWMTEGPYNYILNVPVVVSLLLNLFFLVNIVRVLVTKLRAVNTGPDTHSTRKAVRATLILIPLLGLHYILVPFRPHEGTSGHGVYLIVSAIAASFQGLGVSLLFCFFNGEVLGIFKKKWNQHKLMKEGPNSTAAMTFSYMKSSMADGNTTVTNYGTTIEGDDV
In words: aequorin luminescence Ca2+ mobilization assay, CHO-K1-Aeq-Gα16 cells transiently expressing DH31R. Type of test: cell-based. The note with it: for EC50: read-out: EC50 of luminescence response; for luminescence response / activation of DH31R: DH31R-transfected CHO-K1-Aeq cells, tested up to micromolar levels. The procedure: (§1) Cells were then diluted 10-fold prior to assay.
Amino acid sequences are shown in Supplementary Table S2. […] Receptor responses were normalized against total Ca^2+ luminescence.
(In general: Calcium flux is commonly read through the fluorescence of an indicator in the cells.)

For test [2], the target named is T1, C. maenas DH31R. The test can be described thus: cell-based. How it is done:
as §1
Amino acid sequences are shown in Supplementary Table S2. […] Ca^2+ evoked luminescence was recorded for 40 s, followed by cell lysis (injection of 0.3% Triton-X 100 in BSA medium), and light emission recorded for a further 10 s. […] Receptor responses were normalized against total Ca^2+ luminescence.

The mark [3] stands for this setting: CHO-K1-Aeq-Gα16 cells transiently expressing DH31R, simultaneously performed experiments with three DH31s (Figure 3 main panel), means of n = 4.

Ends that are not written are not given here.

What is called EC50 is the concentration needed to bring the measured effect to its halfway point.

Turning to “GLDLGLGRGFSGSQAAKHLMGLAAANFAGGP-NH2 [Tribolium castaneum DH31]”, the EC50 on C. maenas DH31R [1] (setting [3]) is about 30 nM.

Regarding “GLDLGLSRGFSGSQAAKHLMGLAAANYAGGP-NH2 [Diploptera punctata DH31]”, on C. maenas DH31R [1] (setting [3]), the EC50 is about 30 nM.

Take “GLDMGLGRGFSGSQAAKHLMGLAAANYAGGP-NH2 [C. maenas DH31]”: the EC50 at C. maenas DH31R [1] (CHO-K1-Aeq-Gα16 cells transfected with DH31R, Figure 3 inset, independent set of transfections, means of N = 4) was about 15 nM; on C. maenas DH31R [1] (setting [3]), about 30 nM; on C. maenas DH31R [2] it was about 15 nM.

As for “MQRPQGPSLSVANPIEVLRSRLLLEIARRRMKEQDASRVSKNRQYLQQIG [R. prolixus CRF-like DH, Rhodnius prolixus corticotropin releasing factor-like diuretic hormone (I. Orchard, Toronto)]”, on C. maenas DH31R [1], the “luminescence response / activation of DH31R” value was “No luminescence responses”.

In the case of “NSELINSLGLPKVMNDA-NH2 [C. maenas PDH-1, C. maenas pigment dispersing hormone-1 (Liverpool University)]”, the “luminescence response / activation of DH31R” value at C. maenas DH31R [1] is given as “No luminescence responses”; on C. maenas DH31R [1] (listed as PDH-1), “does not activate”.

These data come from paper PMC6039563, “Functional Identification and Characterization of the Diuretic Hormone 31 (DH31) Signaling System in the Green Shore Crab, Carcinus maenas” (Frontiers in Neuroscience, 2018).
